In US8247377B2, “Non-steroidal glucocorticoid inhibitors and their use in treating inflammation, allergy and auto-immune conditions” (Glaxo Group Limited, priority 2006, dated 2012):

The compounds below were run against T1, progesterone receptor (Homo sapiens, UniProt P06401) (assay: Assay for progesterone receptor activity (CV-1 cells, PRb-BacMam/MMTV-BacMam)). Conditions: CV-1 cells transduced with PRb-BacMam and MMTV-BacMam; read-out: pEC50 progesterone receptor activity (converted).
T1 construct: expressed in transfected cells; host or cells: CV-1 cells transduced with PRb-BacMam and MMTV-BacMam
T1 sequence (P06401 1-933): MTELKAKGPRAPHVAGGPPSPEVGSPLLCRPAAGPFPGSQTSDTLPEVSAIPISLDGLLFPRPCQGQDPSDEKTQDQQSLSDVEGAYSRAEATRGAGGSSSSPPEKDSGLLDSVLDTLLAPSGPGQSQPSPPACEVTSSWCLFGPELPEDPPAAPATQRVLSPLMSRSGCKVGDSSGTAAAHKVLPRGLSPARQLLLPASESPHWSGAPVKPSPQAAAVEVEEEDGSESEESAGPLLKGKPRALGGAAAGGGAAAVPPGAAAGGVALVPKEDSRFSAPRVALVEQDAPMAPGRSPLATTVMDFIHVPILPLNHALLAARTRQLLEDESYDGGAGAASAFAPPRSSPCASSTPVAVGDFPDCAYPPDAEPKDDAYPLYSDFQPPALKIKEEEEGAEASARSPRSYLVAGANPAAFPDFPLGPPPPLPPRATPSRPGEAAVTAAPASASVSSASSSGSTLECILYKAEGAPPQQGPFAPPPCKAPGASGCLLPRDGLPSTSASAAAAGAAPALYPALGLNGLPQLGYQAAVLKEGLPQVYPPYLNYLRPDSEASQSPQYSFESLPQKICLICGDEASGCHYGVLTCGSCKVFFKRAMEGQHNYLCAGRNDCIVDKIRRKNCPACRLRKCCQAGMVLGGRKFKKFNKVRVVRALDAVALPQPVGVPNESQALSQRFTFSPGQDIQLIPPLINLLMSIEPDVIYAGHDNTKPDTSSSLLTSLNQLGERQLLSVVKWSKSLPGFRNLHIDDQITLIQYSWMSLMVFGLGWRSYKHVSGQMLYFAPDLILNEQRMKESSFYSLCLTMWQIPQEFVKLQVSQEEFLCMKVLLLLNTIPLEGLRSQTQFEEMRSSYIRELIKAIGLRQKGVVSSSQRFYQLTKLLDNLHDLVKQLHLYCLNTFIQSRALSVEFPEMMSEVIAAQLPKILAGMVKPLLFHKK
Type: cell-based
Summary of the method: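 CV-1 cells co-transduced with PRb-BacMam and MMTV-BacMam (10% each), seeded onto compounds in DMEM with 10% serum. After 24 h, luminescence was read with Steadylite. pEC50 values were estimated from dose-response curves.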
Compound `Nc1c(C(=O)NCC(O)(CN(CCF)C(=O)c2c(Cl)cccc2OC(F)F)C(F)(F)F)cnn1-c1ccc(F)cc1` (racemic) [Example 31 (racemic), 5-amino-N-(2-{[({2-chloro-6-[(difluoromethyl)oxy]phenyl}carbonyl)(2-fluoroethyl)amino]methyl}-3,3,3-trifluoro-2-hydroxypropyl)-1-(4-fluorophenyl)-1H-pyrazole-4-carboxamide] has an EC50 greater than 1 µM. `Nc1c(C(=O)NCC(O)(CNC(=O)c2c(Cl)cccc2Cl)C(F)(F)F)cnn1-c1ccc(F)cc1` (single isomer, unassigned) [Example 3 Enantiomer 1, 5-Amino-N-[2-({[(2,6-dichlorophenyl)carbonyl]amino}methyl)-3,3,3-trifluoro-2-hydroxypropyl]-1-(4-fluorophenyl)-1H-pyrazole-4-carboxamide] showed an EC50 greater than 1 µM. In the case of `CCN(CC(O)(CNC(=O)c1cnn(-c2cc(F)cc(F)c2)c1N)C(F)(F)F)C(=O)c1c(F)cccc1F` (racemic) [Example 35 (racemic), 5-amino-1-(3,5-difluorophenyl)-N-(2-{[[(2,6-difluorophenyl)carbonyl](ethyl)amino]methyl}-3,3,3-trifluoro-2-hydroxypropyl)-1H-pyrazole-4-carboxamide], the EC50 is reported as greater than 1 µM. Compound `Nc1c(C(=O)NCC(O)(CN(CCF)C(=O)c2c(Cl)cccc2Cl)C(F)(F)F)cnn1-c1ccc(F)cc1` (racemic) [Example 28 (racemic), 5-amino-N-(2-{[[(2,6-dichlorophenyl)carbonyl](2-fluoroethyl)amino]methyl}-3,3,3-trifluoro-2-hydroxypropyl)-1-(4-fluorophenyl)-1H-pyrazole-4-carboxamide] has an EC50 greater than 1 µM. `CCN(CC(O)(CNC(=O)c1cnn(-c2ccc(F)cc2)c1N)C(F)(F)F)C(=O)c1ccccc1S(C)(=O)=O` (single isomer, unassigned) [Example 10 Enantiomer 1, 5-Amino-N-{2-[(ethyl{[2-(methylsulfonyl)phenyl]carbonyl}amino)methyl]-3,3,3-trifluoro-2-hydroxypropyl}-1-(4-fluorophenyl)-1H-pyrazole-4-carboxamide] gave an EC50 greater than 1 µM. `Nc1c(C(=O)NCC(O)(CNC(=O)c2c(Br)cccc2Br)C(F)(F)F)cnn1-c1ccc(F)cc1` (single isomer, unassigned) [Example 11 Enantiomer 1, 5-Amino-N-[2-({[(2,6-dibromophenyl)carbonyl]amino}methyl)-3,3,3-trifluoro-2-hydroxypropyl]-1-(4-fluorophenyl)-1H-pyrazole-4-carboxamide] gave an EC50 greater than 1 µM. In the case of `Nc1c(C(=O)NCC(O)(CNC(=O)c2c(C(F)F)cccc2C(F)F)C(F)(F)F)cnn1-c1ccc(F)cc1` (single isomer, unassigned) [Example 43 Enantiomer 1, 5-Amino-N-{2-[({[2,6-bis(difluoromethyl)phenyl]carbonyl}amino)methyl]-3,3,3-trifluoro-2-hydroxypropyl}-1-(4-fluorophenyl)-1H-pyrazole-4-carboxamide], the EC50 is reported as greater than 1 µM. With `Nc1c(C(=O)NCC(O)(CNC(=O)c2c(Cl)cccc2OC(F)F)C(F)(F)F)cnn1-c1ccc(F)cc1` (racemic) [Example 14 (racemic), 5-Amino-N-(2-{[({2-chloro-6-[(difluoromethyl)oxy]phenyl}carbonyl)amino]methyl}-3,3,3-trifluoro-2-hydroxypropyl)-1-(4-fluorophenyl)-1H-pyrazole-4-carboxamide] the EC50 was greater than 1 µM. `CN(CC(O)(CNC(=O)c1cnn(-c2ccc(F)cc2)c1N)C(F)(F)F)C(=O)c1c(Cl)cccc1Br` (racemic) [Example 16 (racemic), 5-amino-N-(2-{[[(2-bromo-6-chlorophenyl)carbonyl](methyl)amino]methyl}-3,3,3-trifluoro-2-hydroxypropyl)-1-(4-fluorophenyl)-1H-pyrazole-4-carboxamide] gave an EC50 greater than 1 µM. In the case of `CCN(CC(O)(CNC(=O)c1cnn(-c2ccc(F)cc2)c1N)C(F)(F)F)C(=O)c1ccccc1S(C)(=O)=O` (racemic) [Example 10 (racemic), 5-Amino-N-{2-[(ethyl{[2-(methylsulfonyl)phenyl]carbonyl}amino)methyl]-3,3,3-trifluoro-2-hydroxypropyl}-1-(4-fluorophenyl)-1H-pyrazole-4-carboxamide], the EC50 is reported as greater than 1 µM. Work on `Nc1c(C(=O)NCC(O)(CNC(=O)c2c(Cl)cccc2Br)C(F)(F)F)cnn1-c1ccc(F)cc1` (racemic) [Example 12 (racemic), 5-Amino-N-[2-({[(2-bromo-6-chlorophenyl)carbonyl]amino}methyl)-3,3,3-trifluoro-2-hydroxypropyl]-1-(4-fluorophenyl)-1H-pyrazole-4-carboxamide] yielded an EC50 greater than 1 µM. `CCN(CC(O)(CNC(=O)c1cnn(-c2ccc(F)cc2)c1N)C(F)(F)F)C(=O)c1c(F)cccc1F` (racemic) [Example 5 (racemic), 5-Amino-N-(2-{[[(2,6-difluorophenyl)carbonyl](ethyl)amino]methyl}-3,3,3-trifluoro-2-hydroxypropyl)-1-(4-fluorophenyl)-1H-pyrazole-4-carboxamide] gave an EC50 greater than 1 µM. With `CN(CC(O)(CNC(=O)c1cnn(-c2ccc(F)cc2)c1N)C(F)(F)F)C(=O)c1c(F)cccc1F` (racemic) [Example 8 (racemic), 5-Amino-N-(2-{[[(2,6-difluorophenyl)carbonyl](methyl)amino]methyl}-3,3,3-trifluoro-2-hydroxypropyl)-1-(4-fluorophenyl)-1H-pyrazole-4-carboxamide] the EC50 was greater than 1 µM. `CCN(CC(O)(CNC(=O)c1cnn(-c2ccc(F)cc2)c1N)C(F)(F)F)C(=O)c1c(OC(F)F)cccc1OC(F)F` (racemic) [Example 26 (racemic), 5-amino-N-(2-{[({2,6-bis[(difluoromethyl)oxy]phenyl}carbonyl)(ethyl)amino]methyl}-3,3,3-trifluoro-2-hydroxypropyl)-1-(4-fluorophenyl)-1H-pyrazole-4-carboxamide] gave an EC50 greater than 1 µM. `CCN(CC(O)(CNC(=O)c1cnn(-c2cccc(Cl)c2)c1N)C(F)(F)F)C(=O)c1c(F)cccc1F` (racemic) [Example 41 (racemic), 5-amino-1-(3-chlorophenyl)-N-(2-{[[(2,6-difluorophenyl)carbonyl](ethyl)amino]methyl}-3,3,3-trifluoro-2-hydroxypropyl)-1H-pyrazole-4-carboxamide] showed an EC50 greater than 1 µM. `Nc1c(C(=O)NCC(O)(CNC(=O)c2c(Br)cccc2C(F)(F)F)C(F)(F)F)cnn1-c1ccc(F)cc1` (single isomer, unassigned) [Example 45 Enantiomer 1, 5-Amino-N-{2-[({[2-bromo-6-(trifluoromethyl)phenyl]carbonyl}amino)methyl]-3,3,3-trifluoro-2-hydroxypropyl}-1-(4-fluorophenyl)-1H-pyrazole-4-carboxamide] showed an EC50 greater than 1 µM. With `Nc1c(C(=O)NCC(O)(CNC(=O)c2c(F)cccc2OC(F)F)C(F)(F)F)cnn1-c1ccc(F)cc1` (single isomer, unassigned) [Example 48 Enantiomer 1, 5-Amino-N-(2-{[({2-[(difluoromethyl)oxy]-6-fluorophenyl}carbonyl)amino]methyl}-3,3,3-trifluoro-2-hydroxypropyl)-1-(4-fluorophenyl)-1H-pyrazole-4-carboxamide] the EC50 was greater than 1 µM.
